Laboratory results from patent US20230257347A1 (priority 2020, published 2023).
Structures can show the parent of a compound that is named as a salt. Where two headings read alike, the source gives them in different places.

Tests used:
[1] = molecular target: T1, Norepinephrine transporter (NET) (Homo sapiens, UniProt P23975); test: Monoamine transporter uptake assay (fluorescent substrate), NET; type: cell-based
T1 construct: expressed in transfected cells

[2] = molecular target: T2, Serotonin transporter (SERT) (Homo sapiens, UniProt P31645); test: cell-based
T2 construct: expressed in transfected cells
T2 sequence (P31645 whole entry): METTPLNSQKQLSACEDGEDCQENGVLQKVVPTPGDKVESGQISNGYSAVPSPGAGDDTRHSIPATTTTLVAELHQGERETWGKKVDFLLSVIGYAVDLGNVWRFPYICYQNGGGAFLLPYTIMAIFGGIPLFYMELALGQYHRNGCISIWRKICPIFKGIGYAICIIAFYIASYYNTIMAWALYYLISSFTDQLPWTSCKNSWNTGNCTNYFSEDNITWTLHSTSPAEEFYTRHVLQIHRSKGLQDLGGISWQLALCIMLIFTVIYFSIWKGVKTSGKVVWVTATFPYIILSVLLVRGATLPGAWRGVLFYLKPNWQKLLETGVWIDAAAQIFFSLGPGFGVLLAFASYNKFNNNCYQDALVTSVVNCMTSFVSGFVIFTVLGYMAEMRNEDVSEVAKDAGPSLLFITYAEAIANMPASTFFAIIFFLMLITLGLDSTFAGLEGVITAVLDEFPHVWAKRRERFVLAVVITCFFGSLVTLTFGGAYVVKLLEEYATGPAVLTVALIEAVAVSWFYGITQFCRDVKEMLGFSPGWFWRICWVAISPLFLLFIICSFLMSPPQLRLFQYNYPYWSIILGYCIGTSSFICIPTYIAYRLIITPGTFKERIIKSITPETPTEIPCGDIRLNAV

[3] = molecular target: T3, 5-Hydroxytryptamine (Serotonin) Receptor 3A (5-HT3A) (Homo sapiens, UniProt P46098); test: Ion channel assay, 5-HT3A; type: cell-based
T3 sequence (P46098 24-478): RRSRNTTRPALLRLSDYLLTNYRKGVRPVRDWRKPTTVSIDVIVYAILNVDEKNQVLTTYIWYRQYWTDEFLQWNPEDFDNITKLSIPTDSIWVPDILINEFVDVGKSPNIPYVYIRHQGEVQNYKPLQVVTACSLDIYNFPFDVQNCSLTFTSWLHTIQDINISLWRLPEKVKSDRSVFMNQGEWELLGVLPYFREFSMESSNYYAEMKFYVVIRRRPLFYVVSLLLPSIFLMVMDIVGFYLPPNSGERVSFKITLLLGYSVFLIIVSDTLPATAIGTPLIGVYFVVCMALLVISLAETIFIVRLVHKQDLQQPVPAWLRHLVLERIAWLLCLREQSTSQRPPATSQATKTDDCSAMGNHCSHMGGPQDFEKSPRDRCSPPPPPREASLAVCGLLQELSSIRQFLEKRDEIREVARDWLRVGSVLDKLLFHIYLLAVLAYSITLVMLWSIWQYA

[4] = molecular target: NAV1.5 (tetrodotoxin-resistant voltage-gated sodium channel) (Homo sapiens, UniProt Q14524); test: cell-based
[5] = molecular target: T4, Dopamine transporter (DAT) (Homo sapiens, UniProt Q01959); test: Monoamine transporter uptake assay (fluorescent substrate), DAT; type: cell-based
T4 construct: expressed in transfected cells
T4 sequence (Q01959 whole entry): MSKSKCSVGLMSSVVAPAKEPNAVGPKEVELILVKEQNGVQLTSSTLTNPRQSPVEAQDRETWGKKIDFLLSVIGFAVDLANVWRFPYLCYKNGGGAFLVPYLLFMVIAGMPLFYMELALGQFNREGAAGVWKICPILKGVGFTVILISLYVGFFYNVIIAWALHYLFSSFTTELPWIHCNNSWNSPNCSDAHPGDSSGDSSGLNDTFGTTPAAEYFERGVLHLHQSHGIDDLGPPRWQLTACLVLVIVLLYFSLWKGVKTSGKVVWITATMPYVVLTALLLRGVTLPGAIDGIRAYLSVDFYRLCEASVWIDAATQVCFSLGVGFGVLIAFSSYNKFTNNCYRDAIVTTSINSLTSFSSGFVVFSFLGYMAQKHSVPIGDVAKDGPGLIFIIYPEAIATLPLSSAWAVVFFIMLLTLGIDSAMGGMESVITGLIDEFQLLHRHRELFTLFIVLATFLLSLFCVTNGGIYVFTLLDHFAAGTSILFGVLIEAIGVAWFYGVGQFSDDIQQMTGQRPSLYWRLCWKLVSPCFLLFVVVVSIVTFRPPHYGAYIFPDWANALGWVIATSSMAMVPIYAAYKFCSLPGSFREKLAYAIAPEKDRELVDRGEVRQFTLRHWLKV

[6] = molecular target: 5-Hydroxytryptamine (Serotonin) Receptor 2B (5-HT2B) (Homo sapiens, UniProt P41595); test: Calcium flux secondary messenger assay, 5-HT2B; type: cell-based
Sequence of 5-Hydroxytryptamine (Serotonin) Receptor 2B (5-HT2B) (P41595 whole entry): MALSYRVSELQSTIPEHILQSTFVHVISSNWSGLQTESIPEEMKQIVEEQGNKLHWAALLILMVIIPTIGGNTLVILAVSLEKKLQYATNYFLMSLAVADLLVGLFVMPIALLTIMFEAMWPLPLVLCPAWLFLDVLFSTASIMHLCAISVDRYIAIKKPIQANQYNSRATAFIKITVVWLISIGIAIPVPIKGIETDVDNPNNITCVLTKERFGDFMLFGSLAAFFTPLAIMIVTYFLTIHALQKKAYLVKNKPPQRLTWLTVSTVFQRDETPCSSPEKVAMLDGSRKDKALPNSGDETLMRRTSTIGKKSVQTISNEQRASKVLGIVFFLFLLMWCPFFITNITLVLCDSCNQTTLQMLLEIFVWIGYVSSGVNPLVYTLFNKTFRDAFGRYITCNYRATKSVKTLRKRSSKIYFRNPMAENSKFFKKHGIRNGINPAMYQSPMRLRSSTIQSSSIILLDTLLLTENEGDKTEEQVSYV

[7] = molecular target: Adrenergic Receptor β1 (ADRB1) (Homo sapiens, UniProt P08588); test: cAMP assay, ADRB1; type: cell-based
Sequence of Adrenergic Receptor β1 (ADRB1) (P08588 whole entry): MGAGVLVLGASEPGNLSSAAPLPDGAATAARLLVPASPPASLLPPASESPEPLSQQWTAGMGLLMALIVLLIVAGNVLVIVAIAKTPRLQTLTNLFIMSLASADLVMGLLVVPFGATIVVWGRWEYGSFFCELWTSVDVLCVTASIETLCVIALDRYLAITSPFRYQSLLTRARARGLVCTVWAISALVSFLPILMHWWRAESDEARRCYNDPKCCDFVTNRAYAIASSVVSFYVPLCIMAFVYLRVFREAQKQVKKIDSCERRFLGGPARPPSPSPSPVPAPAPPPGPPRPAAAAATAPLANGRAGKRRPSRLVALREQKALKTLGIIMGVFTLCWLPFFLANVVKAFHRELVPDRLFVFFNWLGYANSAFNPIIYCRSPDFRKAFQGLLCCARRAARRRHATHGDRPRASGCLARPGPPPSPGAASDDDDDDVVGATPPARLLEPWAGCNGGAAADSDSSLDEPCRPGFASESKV

[8] = molecular target: Muscarinic acetylcholine Receptor M3 (CHRM3) (Homo sapiens, UniProt P20309); test: cell-based
Sequence of Muscarinic acetylcholine Receptor M3 (CHRM3) (P20309 whole entry): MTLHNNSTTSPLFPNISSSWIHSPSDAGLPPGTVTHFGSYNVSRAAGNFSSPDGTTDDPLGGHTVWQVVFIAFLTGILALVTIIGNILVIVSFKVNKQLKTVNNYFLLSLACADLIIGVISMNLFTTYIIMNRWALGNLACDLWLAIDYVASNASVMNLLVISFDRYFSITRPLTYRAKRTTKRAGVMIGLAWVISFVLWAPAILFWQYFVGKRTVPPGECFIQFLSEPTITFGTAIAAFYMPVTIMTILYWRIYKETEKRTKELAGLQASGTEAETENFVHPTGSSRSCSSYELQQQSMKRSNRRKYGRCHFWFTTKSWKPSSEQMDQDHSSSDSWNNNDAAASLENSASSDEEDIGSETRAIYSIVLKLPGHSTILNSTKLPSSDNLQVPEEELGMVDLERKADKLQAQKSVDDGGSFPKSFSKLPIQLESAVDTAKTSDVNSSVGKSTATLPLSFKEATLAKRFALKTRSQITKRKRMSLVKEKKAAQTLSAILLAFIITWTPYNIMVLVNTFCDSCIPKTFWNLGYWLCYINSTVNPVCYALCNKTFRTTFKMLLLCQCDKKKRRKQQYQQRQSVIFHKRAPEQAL

[9] = molecular target: Adenosine Receptor A2A (ADORA2A) (Homo sapiens, UniProt P29274); test: Calcium flux assay, ADORA2A; type: cell-based
Sequence of Adenosine Receptor A2A (ADORA2A) (P29274 whole entry): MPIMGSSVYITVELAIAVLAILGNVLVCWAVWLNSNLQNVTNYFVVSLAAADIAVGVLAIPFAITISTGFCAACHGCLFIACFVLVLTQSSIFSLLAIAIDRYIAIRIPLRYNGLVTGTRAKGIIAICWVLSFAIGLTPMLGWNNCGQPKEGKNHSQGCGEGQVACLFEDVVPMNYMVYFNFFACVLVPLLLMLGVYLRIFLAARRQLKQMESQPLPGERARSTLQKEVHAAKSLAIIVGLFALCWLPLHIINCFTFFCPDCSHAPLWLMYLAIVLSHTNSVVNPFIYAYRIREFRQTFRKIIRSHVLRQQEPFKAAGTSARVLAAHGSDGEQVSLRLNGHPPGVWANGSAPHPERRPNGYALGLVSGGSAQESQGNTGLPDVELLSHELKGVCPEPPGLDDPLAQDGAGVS

[10] = molecular target: T5, Rho Associated Coiled-Coil Containing Protein Kinase 1 (ROCK1) (Homo sapiens, UniProt Q13464); test: KINOMEscan binding assay, ROCK1
T5 construct: made in house; host or cells: E. coli BL21-derived host (T7 phage) or HEK-293
T5 sequence (Q13464 whole entry): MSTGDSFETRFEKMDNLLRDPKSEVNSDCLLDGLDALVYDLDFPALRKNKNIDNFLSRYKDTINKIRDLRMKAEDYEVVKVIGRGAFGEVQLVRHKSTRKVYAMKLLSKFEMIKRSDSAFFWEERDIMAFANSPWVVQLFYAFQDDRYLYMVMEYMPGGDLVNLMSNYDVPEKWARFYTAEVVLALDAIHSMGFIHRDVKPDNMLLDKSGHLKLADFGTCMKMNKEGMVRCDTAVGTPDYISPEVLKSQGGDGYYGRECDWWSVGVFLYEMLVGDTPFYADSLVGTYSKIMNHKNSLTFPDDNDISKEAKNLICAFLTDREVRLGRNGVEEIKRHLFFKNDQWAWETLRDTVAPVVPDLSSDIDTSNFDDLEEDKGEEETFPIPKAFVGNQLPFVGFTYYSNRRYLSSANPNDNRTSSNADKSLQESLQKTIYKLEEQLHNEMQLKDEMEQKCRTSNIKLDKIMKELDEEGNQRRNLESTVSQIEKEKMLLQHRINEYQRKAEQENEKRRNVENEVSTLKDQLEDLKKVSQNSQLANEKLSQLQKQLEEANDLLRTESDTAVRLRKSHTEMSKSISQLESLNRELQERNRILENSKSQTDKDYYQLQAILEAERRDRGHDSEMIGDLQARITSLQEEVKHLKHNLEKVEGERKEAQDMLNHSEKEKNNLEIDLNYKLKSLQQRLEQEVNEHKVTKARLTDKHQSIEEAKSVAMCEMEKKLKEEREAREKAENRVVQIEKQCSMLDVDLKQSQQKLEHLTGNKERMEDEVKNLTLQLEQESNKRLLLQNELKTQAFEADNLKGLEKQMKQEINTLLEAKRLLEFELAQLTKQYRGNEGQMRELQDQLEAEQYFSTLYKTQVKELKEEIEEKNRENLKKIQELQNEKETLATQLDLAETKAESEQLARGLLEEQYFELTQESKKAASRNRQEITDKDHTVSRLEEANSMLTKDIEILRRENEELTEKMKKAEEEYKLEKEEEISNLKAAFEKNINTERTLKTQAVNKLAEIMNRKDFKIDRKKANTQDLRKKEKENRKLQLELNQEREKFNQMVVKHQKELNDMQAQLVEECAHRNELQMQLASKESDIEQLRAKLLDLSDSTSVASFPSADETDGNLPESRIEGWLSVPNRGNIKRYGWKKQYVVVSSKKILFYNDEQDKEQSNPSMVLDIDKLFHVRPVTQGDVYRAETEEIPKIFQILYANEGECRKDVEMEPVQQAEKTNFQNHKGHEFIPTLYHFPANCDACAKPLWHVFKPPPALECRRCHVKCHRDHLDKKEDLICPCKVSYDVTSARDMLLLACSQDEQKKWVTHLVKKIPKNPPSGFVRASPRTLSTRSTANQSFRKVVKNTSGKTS

[11] = molecular target: Cannabinoid Receptor 2 (CNR2) (Homo sapiens, UniProt P34972); test: cAMP assay, CNR2; type: cell-based
Sequence of Cannabinoid Receptor 2 (CNR2) (P34972 whole entry): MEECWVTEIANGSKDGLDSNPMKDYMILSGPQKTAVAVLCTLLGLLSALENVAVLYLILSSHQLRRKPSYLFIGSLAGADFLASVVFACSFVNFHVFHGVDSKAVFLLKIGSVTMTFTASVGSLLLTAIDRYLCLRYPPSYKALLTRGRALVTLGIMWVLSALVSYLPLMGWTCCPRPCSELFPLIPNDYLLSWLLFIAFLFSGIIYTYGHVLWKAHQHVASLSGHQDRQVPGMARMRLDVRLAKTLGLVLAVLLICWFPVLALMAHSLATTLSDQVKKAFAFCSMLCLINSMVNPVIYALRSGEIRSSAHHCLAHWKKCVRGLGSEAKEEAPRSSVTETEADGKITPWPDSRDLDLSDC

[12] = molecular target: T6, Muscarinic acetylcholine Receptor M1 (CHRM1) (Homo sapiens, UniProt P11229); test: cell-based
T6 sequence (P11229 1-460): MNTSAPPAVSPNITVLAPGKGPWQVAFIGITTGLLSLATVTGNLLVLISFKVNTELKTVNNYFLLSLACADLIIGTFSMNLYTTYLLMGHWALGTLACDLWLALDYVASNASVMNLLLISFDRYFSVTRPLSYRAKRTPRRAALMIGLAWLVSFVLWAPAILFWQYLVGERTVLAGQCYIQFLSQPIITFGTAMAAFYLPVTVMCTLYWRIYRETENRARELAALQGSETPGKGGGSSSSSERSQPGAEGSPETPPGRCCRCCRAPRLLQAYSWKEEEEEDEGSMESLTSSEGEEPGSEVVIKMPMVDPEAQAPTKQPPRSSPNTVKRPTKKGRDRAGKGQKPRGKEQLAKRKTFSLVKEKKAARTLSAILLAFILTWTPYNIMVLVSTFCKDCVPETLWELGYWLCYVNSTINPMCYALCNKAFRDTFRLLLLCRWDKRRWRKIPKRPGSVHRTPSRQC

[13] = molecular target: T7, Monoamine oxidase type A (MAOA) (Homo sapiens, UniProt P21397); test: Enzymatic assay, MAOA (kynuramine substrate); type: biochemical
T7 construct: purchased Sigma
T7 sequence (P21397 1-527): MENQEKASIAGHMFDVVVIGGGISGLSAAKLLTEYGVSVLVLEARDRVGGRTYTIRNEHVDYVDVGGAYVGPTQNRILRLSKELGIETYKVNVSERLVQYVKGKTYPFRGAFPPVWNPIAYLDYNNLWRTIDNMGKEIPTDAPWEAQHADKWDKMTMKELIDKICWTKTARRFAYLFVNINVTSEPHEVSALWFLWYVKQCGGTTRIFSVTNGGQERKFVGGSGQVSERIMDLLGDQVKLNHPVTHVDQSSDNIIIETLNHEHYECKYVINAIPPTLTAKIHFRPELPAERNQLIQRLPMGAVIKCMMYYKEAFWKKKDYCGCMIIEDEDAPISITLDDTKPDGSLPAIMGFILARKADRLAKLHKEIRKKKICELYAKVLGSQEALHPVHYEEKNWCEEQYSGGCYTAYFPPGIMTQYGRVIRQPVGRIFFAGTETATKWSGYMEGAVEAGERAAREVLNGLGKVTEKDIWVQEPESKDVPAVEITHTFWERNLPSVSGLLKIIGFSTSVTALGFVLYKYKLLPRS

[14] = read-out: MAOA IC50, Table 10, Source: Original data

Row | Compound | IC50 [1] [µM] | IC50 [2] [µM] | EC50 [3] [µM] | IC50 [3] [µM] | IC50 [4] [µM] | IC50 [5] [µM] | EC50 [6] [µM] | IC50 [6] [µM] | EC50 [7] [µM] | IC50 [7] [µM] | EC50 [8] [µM] | IC50 [8] [µM] | EC50 [9] [µM] | IC50 [9] [µM] | IC50 [10] [µM] | EC50 [11] [µM] | IC50 [11] [µM] | EC50 [12] [µM] | IC50 [12] [µM] | IC50 [13] [µM] | other results
1 | CNC(C)C(=O)c1c[nH]c2ccc(Br)cc12 (stereo not shown) [BK-5Br-NM-AMT, 1-(5-bromo-1H-indol-3-yl)-2-(methylamino) propan-1-one hydrochloride] | > 10 | > 10 | > 10 | 0.673 | > 10 | 4.24 | > 10 | 0.0447 | > 10 | > 10 | > 10 | > 10 | > 10 | > 10 | > 10 | > 10 | > 10 | > 10 | > 10 | > 10 | IC50 [13, 14]: > 10 µM
2 | CNC(C)C(=O)c1c[nH]c2ccc(Cl)cc12 (stereo not shown) [BK-5Cl-NM-AMT, 1-(5-chloro-1H-indol-3-yl)-2-(methylamino) propan-1-one hydrochloride] | > 10 | > 10 | > 10 | 0.965 | > 10 | 6.08 | > 10 | 0.0921 | > 10 | > 10 | > 10 | > 10 | > 10 | > 10 | > 10 | > 10 | > 10 | > 10 | > 10 | > 10 | IC50 [13, 14]: > 10 µM
3 | CNC(C)C(=O)c1c[nH]c2ccc(F)cc12 (stereo not shown) [BK-5F-NM-AMT, 1-(5-Fluoro-1H-indol-3-yl)-2-(methylamino) propan-1-one hydrochloride] | > 10 | > 10 | > 10 | > 30 | > 10 | > 10 | > 10 | 0.587 | > 10 | > 10 | > 10 | > 10 | > 10 | > 10 | > 10 | > 10 | > 10 | > 10 | > 10 | > 10 | MAOA inhibition (MAOI or not, in words) ([13]; original data): is not an MAOI; IC50 [13, 14]: > 10 µM
